Structures can show the parent of a compound that is named as a salt.

Among the data in US20220289685A1, “ANTIMALARIAL HEXAHYDROPYRIMIDINE ANALOGUES” (UCB BIOPHARMA SRL, priority 2019, published 2022) are IC50 values, retold here.

The subject of one experiment is Plasmodium falciparum 3D7 strain. The experiment is described as follows: P. falciparum 3D7 asexual blood stage assay (SYBR green readout). It is filed as cell-based. Conditions: P. falciparum 3D7 in human erythrocytes, 72 h incubation, SYBR green fluorescence; read-out: IC50. The method, then: Asexual Blood Stage Assay
The assay used to measure the effect of test compounds on a bloodstream stage of Plasmodium falciparum: 3D7 strain employs SYBR green as the readout. This is a dye that binds to double stranded deoxyribonucleic acid (DNA) with a resulting increase in fluorescence, allowing detection of P. falciparum DNA in infected erythrocytes, and thereby providing a measure of parasite growth and propagation.
P. falciparum Culture Maintenance
Erythrocytes (A+ blood) were prepared for both parasite culture and assay by washing 4 times with incomplete media (15.9 g RPMI 1640 (25 mM HEPES, L-glutamine), 1 g NaHCO3, 2 g glucose, 400 μL gentacin (500 mg/mL), 2 mL hypoxanthine solution (13.6 g/L in 0.1M NaOH pH 7.3) in 1 litre of media). The cells were centrifuged at 1800 g for 5 minutes, before decanting the supernatant and re-suspending in fresh incomplete media. On the final wash, the cells were re-suspended in complete media (incomplete media with 5 g/L AlbumaxII), and centrifuged at 1800 g for 3 minutes. This cell sediment was treated as 100% haematocrit.
P. falciparum 3D7 was cultured in erythrocytes at 5% haematocrit in complete media at 37° C. (1% O2, 3% CO2, balance N2). Cultures were split on a weekly basis to achieve a 1% parasitaemia in erythrocites at 5% haematocrit in fresh media. Culture media is replaced by fresh media every other day (2 times during the week).
On day 1, test compounds were added to assay plates using Echo dispensing technology ([…] and 20 points titration). 50 nL of each compound dilution was added to 50 μL of culture (5% haematocrit, 0.5% parasitaemia) and incubated for 72 h at 37° C. (1% O2, 3% CO2, balance N2). Final concentrations of test compounds ranged from 50,000 nM to 15 nM, in […].
On day 4, 10 μL SYBR green (Invitrogen S7563 supplied as 10,000× concentrate in DMSO) pre-diluted to 3× concentrate with Lysis buffer (20 mM Tris pH 7.9, 5% EDTA, 0.16% w/v, 1.6% TX100 v/v) was added to the cultures and incubated in the dark, overnight, at room temperature.
On day 5, fluorescent signal was measured using a BioTek plate reader (excitation 485 nm, emission 528 nm). All data were processed using IDBS ActivityBase. Raw data were converted into percent inhibition through linear regression by setting the high inhibition control (mefloquine) as 100% and the no inhibition control (DMSO) as 0%. Quality control criteria for passing plates were as follows: Z′>0.5, S:B>3, 30% CV(no inhibition control)<15. The formula used to calculate Z′ is: […]
All EC50 curve fitting was undertaken using the following bi-phasic two site dose response using XLfit model 300 (IDBS):
where A=100 minus the top of the upper curve 1 and the bottom of lower curve; B=Hill slope; log(C)=IC50 concentration at lower site; log(D)=IC50 concentration at upper site; x=inhibitor concentration; and y=% inhibition.
For `COc1ncccc1C(=O)Nc1cccc([C@]2(C)CC(=O)N([C@@H]3CCO[C@H](C)C3)C(=N)N2)c1Cl` (relative stereo) [Example 30, N-(2-Chloro-3-{(4S)-2-imino-4-methyl-1-[(2R*,4R*)-2-methyl-etrahydropyran-4-yl]-6-oxo-hexahydropyrimidin-4-yl]phenyl)-2-methoxypyridine-3-carboxamide trifluoroacetic acid salt], the half-inhibitory concentration (IC50) (usually the point on the concentration scale where inhibition reaches its midpoint) was 15 nM.

Still in this experiment, the particulars now being: Plasmodium falciparum, 3D7, Erythrocyte, 72 h.
With `Cc1cc(Cl)cc(C(=O)Nc2cccc([C@]3(C)CC(=O)N([C@@H]4CCO[C@H](C)C4)C(=N)N3)c2Cl)c1` (relative stereo) [Example 22, 3-Chloro-N-(2-chloro-3-{(4S)-2-imino-4-methyl-1-[(2R*,4R*)-2-methyltetrahydropyran-4-yl]-6-oxo-hexahydropyrimidin-4-yl}phenyl)-5-methylbenzamide hydrochloride], the IC50 was 9 nM. The same measure, in the same setting: then `C[C@@H]1C[C@H](N2C(=N)N[C@](C)(c3cccc(NC(=O)c4cccc(C#N)c4)c3Cl)CC2=O)C[C@H](C)O1` (relative stereo) [Example 24, N-(2-Chloro-3-{(4S)-1-[(2S*,6R*)-2,6-dimethyltetrahydropyran-4-yl]-2-imino-4-methyl-6-oxohexahydro-pyrimidin-4-yl]phenyl)-3-cyano-benzamide hydrochloride], with 28 nM; and `C[C@@H]1C[C@H](N2C(=N)N[C@](C)(c3cccc(NC(=O)c4cccc(C#N)c4)c3Cl)CC2=O)CCC1(F)F` (relative stereo) [Example 25, N-(2-Chloro-3-{(4S)-1-[(1R*,3R*)-4,4-difluoro-3-methylcyclohexyl]-2-imino-4-methyl-6-oxohexahydro-pyrimidin-4-yl]phenyl)-3-cyano-benzamide trifluoroacetic acid salt], with 87 nM. Same read-out and setting: next, `C[C@H]1C[C@@H](N2C(=N)N[C@](C)(c3cccc(NC(=O)c4cccc(C#N)c4)c3Cl)CC2=O)CCC1(F)F` (relative stereo) [Example 26, N-(2-Chloro-3-{(4S)-1-[(1S*,3S*)-4,4-difluoro-3-methylcyclohexyl]-2-imino-4-methyl-6-oxohexahydro-pyrimidin-4-yl]phenyl)-3-cyano-benzamide trifluoroacetic acid salt]: 15 nM. Same read-out and setting: then `C[C@@H]1C[C@H](N2C(=N)N[C@](C)(c3cccc(NC(=O)c4cn(C)c5ccccc45)c3Cl)CC2=O)CCO1` (relative stereo) [Example 27, N-(2-Chloro-3-{(4S)-2-imino-4-methyl-1-[(2R*,4R*)-2-methyl-tetrahydropyran-4-yl]-6-oxo-hexahydropyrimidin-4-yl}phenyl)-1-methylindole-3-carboxamide trifluoroacetic acid salt], with 29 nM.

`Cc1cc(C(=O)Nc2cccc([C@]3(C)CC(=O)N([C@@H]4CCO[C@H](C)C4)C(=N)N3)c2Cl)c2nccn2c1` (relative stereo) [Example 28, N-(2-Chloro-3-{(4S)-2-imino-4-methyl-1-[(2R*,4R*)-2-methyl-tetrahydropyran-4-yl]-6-oxo-hexahydropyrimidin-4-yl}phenyl)-6-methylimidazo[1,2-a]pyridine-8-carboxamide trifluoroacetic acid salt] displayed an IC50 of 24 nM. On the same count and under the same terms, next, `C[C@@H]1CC(N2C(=N)N[C@](C)(c3cccc(NC(=O)c4cccn5nnnc45)c3Cl)CC2=O)CCO1` (relative stereo) [Example 29, N-(2-Chloro-3-{(4S)-2-imino-4-methyl-1-[(2R*,4R*)-2-methyl-tetrahydropyran-4-yl]-6-oxo-hexahydropyrimidin-4-yl}phenyl)-tetrazolo[1,5-a] pyridine-8-carboxamide trifluoroacetic acid salt]: 23 nM. On the same count and under the same terms, then `C[C@@H]1C[C@H](N2C(=N)N[C@](C)(c3cccc(NC(=O)c4cnc5ccccc5n4)c3Cl)CC2=O)CCO1` (relative stereo) [Example 31, N-(2-Chloro-3-{(4S)-2-imino-4-methyl-1-[(2R*,4R*)-2-methyl-tetrahydropyran-4-yl]-6-oxo-hexahydropyrimidin-4-yl}phenyl)-quinoxaline-2-carboxamide trifluoroacetic acid salt], with 13 nM.

`C[C@@H]1C[C@H](N2C(=N)N[C@](C)(c3cccc(NC(=O)c4cc(C(F)(F)F)nn4C)c3Cl)CC2=O)CCO1` (relative stereo) [Example 32, N-(2-Chloro-3-{(4S)-2-imino-4-methyl-1-[(2R*,4R*)-2-methyl-tetrahydropyran-4-yl]-6-oxo-hexahydropyrimidin-4-yl}phenyl)-2-methyl-5-(trifluoromethyl)-pyrazole-3-carboxamide trifluoroacetic acid salt]: the IC50 was 55 nM. Still for that read-out and setting: next, `C[C@@H]1C[C@H](N2C(=N)N[C@](C)(c3cccc(NC(=O)c4cnc5ccccc5c4)c3Cl)CC2=O)CCO1` (relative stereo) [Example 33, N-(2-Chloro-3-{(4S)-2-imino-4-methyl-1-[(2R*,4R*)-2-methyl-tetrahydropyran-4-yl]-6-oxo-hexahydropyrimidin-4-yl}phenyl)-quinoline-3-carboxamide trifluoroacetic acid salt]: 54 nM; `Cc1cnc(C(=O)Nc2cccc([C@]3(C)CC(=O)N([C@@H]4CCO[C@H](C)C4)C(=N)N3)c2Cl)cn1` (relative stereo) [Example 34, N-(2-Chloro-3-{(4S)-2-imino-4-methyl-1-[(2R*,4R*)-2-methyl-tetrahydropyran-4-yl]-6-oxo-hexahydropyrimidin-4-yl]phenyl)-5-methylpyrazine-2-carboxamide trifluoroacetic acid salt]: 60 nM.

Consider `C[C@@H]1C[C@H](N2C(=N)N[C@](C)(c3cccc(NC(=O)c4ccccc4F)c3Cl)CC2=O)CCO1` (relative stereo) [Example 35, N-(2-Chloro-3-{(4S)-2-imino-4-methyl-1-[(2R*,4R*)-2-methyl-tetrahydropyran-4-yl]-6-oxo-hexahydropyrimidin-4-yl}phenyl)-2-fluorobenzamide trifluoroacetic acid salt], for which half-maximal inhibition (IC50) was put at 11 nM. Same read-out and setting: next, `C[C@@H]1C[C@H](N2C(=N)N[C@](C)(c3cccc(NC(=O)c4ccc(F)c(F)c4)c3Cl)CC2=O)CCO1` (relative stereo) [Example 36, N-(2-Chloro-3-{(4S)-2-imino-4-methyl-1-[(2R*,4R*)-2-methyl-tetrahydropyran-4-yl]-6-oxo-hexahydropyrimidin-4-yl]phenyl)-3,4-difluorobenzamide trifluoroacetic acid salt]: 33 nM; `C[C@@H]1C[C@H](N2C(=N)N[C@](C)(c3cccc(NC(=O)c4ccc(C(F)(F)F)cc4)c3Cl)CC2=O)CCO1` (relative stereo) [Example 37, N-(2-Chloro-3-{(4S)-2-imino-4-methyl-1-[(2R*,4R*)-2-methyl-tetrahydropyran-4-yl]-6-oxo-hexahydropyrimidin-4-yl}phenyl)-4-(trifluoromethyl)benzamide trifluoroacetic acid salt]: 207 nM.

`C[C@@H]1C[C@H](N2C(=N)N[C@](C)(c3cccc(NC(=O)c4cncnc4)c3Cl)CC2=O)CCO1` (relative stereo) [Example 38, N-(2-Chloro-3-{(4S)-2-imino-4-methyl-1-[(2R*,4R*)-2-methyl-tetrahydropyran-4-yl]-6-oxo-hexahydropyrimidin-4-yl]phenyl)-pyrimidine-5-carboxamide trifluoroacetic acid salt] registered a 50% inhibitory concentration (IC50) of 110 nM. On the same count and under the same terms, then `C[C@@H]1C[C@H](N2C(=N)N[C@](C)(c3cccc(NC(=O)c4cncc(Cl)c4)c3Cl)CC2=O)CCO1` (relative stereo) [Example 39, 5-Chloro-N-(2-chloro-3-{(4S)-2-imino-4-methyl-1-[(2R*,4R*)-2-methyltetrahydropyran-4-yl]-6-oxo-hexahydropyrimidin-4-yl}phenyl)-pyridine-3-carboxamide trifluoroacetic acid salt], with 19 nM; and `C[C@@H]1C[C@H](N2C(=N)N[C@](C)(c3cccc(NC(=O)c4cncc(F)c4)c3Cl)CC2=O)CCO1` (relative stereo) [Example 40, N-(2-Chloro-3-{(4S)-2-imino-4-methyl-1-[(2R*,4R*)-2-methyl-tetrahydropyran-4-yl]-6-oxo-hexahydropyrimidin-4-yl]phenyl)-5-fluoropyridine-3-carboxamide trifluoroacetic acid salt], with 34 nM.
